Reference: patent US10294202B2, “Pyrrolidinones as herbicides” (FMC Corporation, priority 2013, dated 2019)

Tests used:
pigweed = experiment: Test A pre-/postemergence herbicide test; type: in vivo, Amaranthus retroflexus
Summary of the method: (§1)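 Directed soil spray to seeded pots (preemergence) or spray onto one- to two-leaf seedlings 2–10 cm tall (postemergence); loam/sand substrate throughout. Evaluated visually after about 10 days against untreated plants, 0 = no effect, 100 = complete control.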

corn = experiment: Test A pre-/postemergence herbicide test; type: in vivo, Zea mays
Summary of the method: as §1

velvetleaf = experiment: Test A pre-/postemergence herbicide test; type: in vivo, Abutilon theophrasti
Summary of the method: as §1

giant foxtail = experiment: Test A pre-/postemergence herbicide test; type: in vivo, Setaria faberii
Summary of the method: as §1

wheat = experiment: Test A pre-/postemergence herbicide test; type: in vivo, Triticum aestivum
Summary of the method: as §1

rice = experiment: Test B flooded paddy test; type: in vivo, Oryza sativa; details: Flood, scale of 0 to 100 where 0 is no effect and 100 is complete control
Summary of the method: (§2)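 Plants were grown to the 2-leaf stage, then pots were flooded to 3 cm above the soil and compound was applied directly into the paddy water, with that depth held throughout. After 13 to 15 days in a greenhouse, injury was rated visually against untreated controls on a 0 to 100 scale (100 = complete control).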

crabgrass, large = experiment: Test A pre-/postemergence herbicide test; type: in vivo, Digitaria sanguinalis
Summary of the method: as §1

ducksalad = experiment: Test B flooded paddy test; type: in vivo, Heteranthera limosa; details: Flood, scale of 0 to 100 where 0 is no effect and 100 is complete control
Summary of the method: as §2

sedge, umbrella = experiment: Test B flooded paddy test; type: in vivo, Cyperus difformis; details: Flood, scale of 0 to 100 where 0 is no effect and 100 is complete control
Summary of the method: as §2

morningglory = experiment: Test A pre-/postemergence herbicide test; type: in vivo, Ipomoea spp.
Summary of the method: as §1

barnyardgrass [1] = experiment: Test A pre-/postemergence herbicide test; type: in vivo, Echinochloa crus-galli
Summary of the method: as §1

barnyardgrass [2] = experiment: Test B flooded paddy test; type: in vivo, Echinochloa crus-galli; details: Flood, scale of 0 to 100 where 0 is no effect and 100 is complete control
Summary of the method: as §2

[3] = 125 g ai/ha, visual rating, 0 to 100 scale, 0 no effect, 100 complete control, approximately 10 days, preemergence
[4] = Postemergence, 125 g ai/ha, 0 to 100 scale, 0 is no effect, 100 is complete control
[5] = preemergence, 500 g ai/ha, 0 to 100 scale, 0 is no effect and 100 is complete control
[6] = Postemergence, 500 g ai/ha, 0 to 100 scale (0 no effect, 100 complete control)
[7] = Preemergence, 125 g ai/ha, 0 to 100 scale where 0 is no effect and 100 is complete control

| SMILES | Plant response rating, Pigweed (pigweed; [4]) | Plant response rating, Pigweed (pigweed; [5]) | Plant response rating, Corn (corn; [4]) | Plant response rating, Corn (corn; [5]) | Plant response rating, Velvetleaf (velvetleaf; [4]) | Plant response rating, Velvetleaf (velvetleaf; [5]) | Plant response rating, Foxtail, Giant (giant foxtail; [4]) | Plant response rating, Foxtail, Giant (giant foxtail; [5]) | Plant response rating, Wheat (wheat; [4]) | Plant response rating, Wheat (wheat; [5]) | Plant response rating, Rice (rice; 250 g ai/ha) | Plant response rating, Crabgrass, Large (crabgrass, large; [4]) | Plant response rating, Crabgrass, Large (crabgrass, large; [5]) | Plant response rating, Ducksalad (ducksalad; 250 g ai/ha) | Plant response rating, Sedge, Umbrella (sedge, umbrella; 250 g ai/ha) | Plant response rating, Morningglory (morningglory; [4]) | Plant response rating, Morningglory (morningglory; [5]) | Plant response rating, Barnyardgrass (barnyardgrass [1]; [4]) | Plant response rating, Barnyardgrass (barnyardgrass [1]; [5]) | Plant response rating, Barnyardgrass (barnyardgrass [2]; 250 g ai/ha) | further results |
| --- | --- | --- | --- | --- | --- | --- | --- | --- | --- | --- | --- | --- | --- | --- | --- | --- | --- | --- | --- | --- | --- |
| COc1ccc(C2CNC(=O)C2C(=O)Nc2ccccc2C(F)(F)F)cc1F (racemic) [Compound 199] | 0 | 0 | 0 | 0 | 0 | 0 | 0 | 90 | 0 | 0 | 0 | 60 | 100 | 90 | 0 | 0 | 0 | 50 | 60 | 20 | Plant response rating, Pigweed (pigweed; [3]): 0; Pigweed plant response rating (0 to 100 scale, 0 is no effect, 100 is complete control) (pigweed; Postemergence, 500 g ai/ha): 0; Plant response rating, Corn (corn; [3]): 0; Corn plant response rating (0 to 100 scale, 0 is no effect, 100 is complete control) (corn; Postemergence, 500 g ai/ha): 0; Plant response rating, Velvetleaf (velvetleaf; [3]): 0; Velvetleaf plant response rating (0 to 100 scale, 0 is no effect, 100 is complete control) (velvetleaf; Postemergence, 500 g ai/ha): 40; Plant response rating, Foxtail, Giant (giant foxtail; [3]): 50; Foxtail, Giant plant response rating (0 to 100 scale, 0 is no effect, 100 is complete control) (giant foxtail; Postemergence, 500 g ai/ha): 50; Plant response rating, Wheat (wheat; [3]): 0; Wheat plant response rating (0 to 100 scale, 0 is no effect, 100 is complete control) (wheat; Postemergence, 500 g ai/ha): 0; Plant response rating, Rice (rice; 1000 g ai/ha): 0; Plant response rating, Crabgrass, Large (crabgrass, large; [3]): 90; Crabgrass, Large plant response rating (0 to 100 scale, 0 is no effect, 100 is complete control) (crabgrass, large; Postemergence, 500 g ai/ha): 80; Plant response rating, Ducksalad (ducksalad; 1000 g ai/ha): 80; Plant response rating, Sedge, Umbrella (sedge, umbrella; 1000 g ai/ha): 0; Plant response rating, Morningglory (morningglory; [3]): 0; Morningglory plant response rating (0 to 100 scale, 0 is no effect, 100 is complete control) (morningglory; Postemergence, 500 g ai/ha): 0; Plant response rating, Barnyardgrass (barnyardgrass [1]; [3]): 0; Barnyardgrass plant response rating (0 to 100 scale, 0 is no effect, 100 is complete control) (barnyardgrass [1]; Postemergence, 500 g ai/ha): 70; Plant response rating, Barnyardgrass (barnyardgrass [2]; 1000 g ai/ha): 20 |
| O=C1NCC(c2ccc(F)c(F)c2)C1C(=O)Nc1cccc(C(F)(F)F)n1 (racemic) [Compound 245] | 40 | 30 | 0 | 0 | 20 | 0 | 20 | 70 | 0 | 0 |  | 20 | 80 |  |  | 0 | 0 | 30 | 20 |  | Plant response rating, Pigweed (pigweed; [6]): 40; Plant response rating, Pigweed (pigweed; [7]): 0; Plant response rating, Corn (corn; [6]): 0; Plant response rating, Corn (corn; [7]): 0; Plant response rating, Velvetleaf (velvetleaf; [6]): 40; Plant response rating, Velvetleaf (velvetleaf; [7]): 0; Plant response rating, Foxtail, Giant (giant foxtail; [6]): 30; Plant response rating, Foxtail, Giant (giant foxtail; [7]): 60; Plant response rating, Wheat (wheat; [6]): 40; Plant response rating, Wheat (wheat; [7]): 0; Plant response rating, Rice (rice; 1000 g ai/ha): 0; Plant response rating, Crabgrass, Large (crabgrass, large; [6]): 30; Plant response rating, Crabgrass, Large (crabgrass, large; [7]): 60; Plant response rating, Ducksalad (ducksalad; 1000 g ai/ha): 90; Plant response rating, Sedge, Umbrella (sedge, umbrella; 1000 g ai/ha): 0; Plant response rating, Morningglory (morningglory; [6]): 0; Plant response rating, Morningglory (morningglory; [7]): 0; Plant response rating, Barnyardgrass (barnyardgrass [1]; [6]): 50; Plant response rating, Barnyardgrass (barnyardgrass [1]; [7]): 20; Plant response rating, Barnyardgrass (barnyardgrass [2]; 1000 g ai/ha): 20 |
| O=C1NCC(c2ccc(OC(F)(F)F)cc2)C1C(=O)Nc1ccccc1F (racemic) [Compound 256] | 0 | 0 | 0 | 0 | 0 | 0 | 40 | 60 | 0 | 0 | 0 | 70 | 90 | 60 | 50 | 0 | 0 | 0 | 20 | 0 | Plant response rating, Pigweed (pigweed; [6]): 0; Plant response rating, Pigweed (pigweed; [7]): 0; Plant response rating, Corn (corn; [6]): 0; Plant response rating, Corn (corn; [7]): 0; Plant response rating, Velvetleaf (velvetleaf; [6]): 0; Plant response rating, Velvetleaf (velvetleaf; [7]): 0; Plant response rating, Foxtail, Giant (giant foxtail; [6]): 70; Plant response rating, Foxtail, Giant (giant foxtail; [7]): 20; Plant response rating, Wheat (wheat; [6]): 20; Plant response rating, Wheat (wheat; [7]): 0; Plant response rating, Crabgrass, Large (crabgrass, large; [6]): 90; Plant response rating, Crabgrass, Large (crabgrass, large; [7]): 80; Plant response rating, Morningglory (morningglory; [6]): 0; Plant response rating, Morningglory (morningglory; [7]): 0; Plant response rating, Barnyardgrass (barnyardgrass [1]; [6]): 20; Plant response rating, Barnyardgrass (barnyardgrass [1]; [7]): 0 |
| O=C1NCC(c2ccc(OC(F)(F)F)cc2)C1C(=O)Nc1ccccc1C(F)(F)F (racemic) [Compound 258] | 0 | 0 | 0 | 0 | 0 | 0 | 60 | 90 | 0 | 0 | 0 | 80 | 90 | 60 | 40 | 0 | 0 | 40 | 90 | 0 | Plant response rating, Pigweed (pigweed; [6]): 0; Plant response rating, Pigweed (pigweed; [7]): 0; Plant response rating, Corn (corn; [6]): 20; Plant response rating, Corn (corn; [7]): 0; Plant response rating, Velvetleaf (velvetleaf; [6]): 0; Plant response rating, Velvetleaf (velvetleaf; [7]): 0; Plant response rating, Foxtail, Giant (giant foxtail; [6]): 80; Plant response rating, Foxtail, Giant (giant foxtail; [7]): 50; Plant response rating, Wheat (wheat; [6]): 30; Plant response rating, Wheat (wheat; [7]): 0; Plant response rating, Crabgrass, Large (crabgrass, large; [6]): 90; Plant response rating, Crabgrass, Large (crabgrass, large; [7]): 90; Plant response rating, Morningglory (morningglory; [6]): 0; Plant response rating, Morningglory (morningglory; [7]): 0; Plant response rating, Barnyardgrass (barnyardgrass [1]; [6]): 80; Plant response rating, Barnyardgrass (barnyardgrass [1]; [7]): 20 |
